Results taken from US20210253643A1, “HYDROPHOBIC BIOMOLECULE STABILIZING SCAFFOLD PEPTIDES AND METHODS OF MAKING AND USING SAME” (The University of British Columbia, priority 2018, published 2021).
No end group written: not given here.

Experiments:
[1] = target: T1, photosynthetic bacterial reaction center (BRC) (Cereibacter sphaeroides, UniProt P0C0Y7+P0C0Y8+P0C0Y9); assay: Thermostability of the BRC complex (absorbance at 803 nm after incubation at 65° C.); assay type: physicochemical, Rhodobacter sphaeroides; details: 0.03% LDAO
T1 construct: placed on H from own knowledge of pIND4-RC1; made in house; host or cells: Rhodobacter sphaeroides RcX (ΔpuhA, ΔpufQBALMX, ΔrshI, ΔppsR), plasmid pIND4-RC1
Description: Reconstitution of the BRC in peptidiscs, low lipid nanodiscs, and styrene maleic acid nanoparticles: The purified BRC complex (1 mg/mL) was mixed at a 1:1.8 (μg/μg) ratio with NSPr followed by 10-fold dilution in Buffer A to decrease the LDAO concentration to 0.003%. For formation of low-lipid nanodiscs, the purified BRC complex was instead mixed at a 1:2 (mol/mol) ratio with MSP1D1 before dilution. Alternatively, an equivalent amount of BRC was diluted in Buffer A supplemented with 0.03% LDAO, 0.02% DDM, 0.1% SMA or 0.1% SDS as described. After incubation for 10 minutes on ice, aggregated proteins were removed by centrifugation (13,000×g, 10 min at 4° C.). […]
Absorbance spectroscopy: Absorption spectra were recorded using a Hitachi U-3010 spectrophotometer. A blank measurement was recorded in Buffer A(+0.03% LDAO for detergent purified BRC). Samples were incubated in a PCR thermocycler at the indicated temperature, and then measured at the desired time points in a quartz cuvette at room temperature. […]
The photosynthetic bacterial reaction center (BRC) from Rhodobacter sphaeroides was reconstituted into peptidiscs using NSPr. FIG. 21A illustrates the absorbance scans of the BRC (1 μM) in detergent solution (0.03% LDAO (lauryldimethylamine oxide)) and in peptidisc. Scans were normalized to the value measured at 803 nm (the absorbance peak of the accessory bacteriochlorophylls). […]

[2] = Peptide solubility by turbidity of peptide suspensions at 550 nm; details: for Solubility (/5): Experiment #2, score 1 to 5; for Solubility: Experiment #1, score 1 to 5, turbidity at 550 nm
Description: The solubility of the peptides was determined by measuring the turbidity of each of the peptide suspensions at 550 nm. The numbers 1 to 5 were used denote the degree of solubility, where 1 means poor solubility and 5 means high solubility.

membrane proteins = assay: Competition with equimolar NSPr-FAM during on-gel reconstitution of membrane proteins; assay type: biochemical; details: 0 no competition, 100 full competition
Description: (§1) Table 10 summarizes the biophysical, structural and experimental characteristics of the tested NSP peptide variants. […] The number of inter-helix salt bridges formed between the AH1 and AH2 regions for each of the tested amphipathic peptide variants was also determined.

[3] = system: membrane proteins MsbA and FhuA; assay: On-gel reconstitution efficiency of membrane proteins; assay type: biochemical, E. coli; set-up: key: 1 means poor reconstitution; 5 means efficient reconstitution
Description: Bands were visualized by Coomassie Blue G250 staining.
as §1

[4] = Experiment #1, score 1 to 5, on-gel, MsbA and FhuA

Row | Molecule | Solubility (/5) [2] | other results
1 | CCCCCCCCCCCC[N+](C)(C)[O-] [LDAO, lauryldimethylamine oxide] |  | Time to full denaturation of BRC [1]: less than 4 minutes
2 | CC(C)C[C@H](NC(=O)[C@H](CCCCN)NC(=O)[C@H](C)NC(=O)[C@H](Cc1ccccc1)NC(=O)[C@H](Cc1ccc(O)cc1)NC(=O)[C@H](CC(=O)O)NC(=O)[C@H](CCCCN)NC(=O)[C@@H](NC(=O)[C@H](C)NC(=O)[C@H](CCC(=O)O)NC(=O)[C@H](CCCCN)NC(=O)[C@H](CC(C)C)NC(=O)[C@H](CCCCN)NC(=O)[C@H](CCC(=O)O)NC(=O)[C@H](C)NC(=O)[C@H](C)NC(=O)[C@@H]1CCCN1C(=O)[C@H](CC(=O)O)NC(=O)[C@H](Cc1c[nH]c2ccccc12)NC(=O)[C@H](Cc1ccccc1)NC(=O)[C@H](CCCCN)NC(=O)[C@H](C)NC(=O)[C@H](Cc1ccccc1)NC(=O)[C@H](Cc1ccc(O)cc1)NC(=O)[C@H](CC(=O)O)NC(=O)[C@H](CCCCN)NC(=O)[C@@H](NC(=O)[C@H](C)NC(=O)[C@H](CCC(=O)O)NC(=O)[C@H](CCCCN)NC(=O)[C@H](Cc1ccccc1)NC(=O)[C@H](CCCCN)NC(=O)[C@H](CCC(=O)O)NC(=O)[C@H](C)NC(=O)[C@H](Cc1ccccc1)NC(=O)[C@H](Cc1c[nH]cn1)NC(=O)[C@H](Cc1c[nH]cn1)NC(=O)[C@H](Cc1c[nH]cn1)NC(=O)[C@H](Cc1c[nH]cn1)NC(=O)[C@H](Cc1c[nH]cn1)NC(=O)[C@@H](N)Cc1c[nH]cn1)C(C)C)C(C)C)C(=O)N[C@@H](Cc1c[nH]c2ccccc12)C(=O)N[C@@H](CC(=O)O)C(=O)O [NSPr-6xHis, HHHHHH FAEKFKEAVKDYFAKFWD P AAEKLKEAVKDYFAKLWD] | 3 /5 | 
3 | CC(C)C[C@H](NC(=O)[C@H](CCCCN)NC(=O)[C@H](C)NC(=O)[C@H](Cc1ccccc1)NC(=O)[C@H](Cc1ccc(O)cc1)NC(=O)[C@H](CC(=O)O)NC(=O)[C@H](CCCCN)NC(=O)[C@@H](NC(=O)[C@H](C)NC(=O)[C@H](CCC(=O)O)NC(=O)[C@H](CCCCN)NC(=O)[C@H](CC(C)C)NC(=O)[C@H](CCCCN)NC(=O)[C@H](CCC(=O)O)NC(=O)[C@H](C)NC(=O)[C@H](C)NC(=O)[C@@H]1CCCN1C(=O)[C@H](CC(=O)O)NC(=O)[C@H](Cc1c[nH]c2ccccc12)NC(=O)[C@H](Cc1ccccc1)NC(=O)[C@H](CCCCN)NC(=O)[C@H](C)NC(=O)[C@H](Cc1ccccc1)NC(=O)[C@H](Cc1ccc(O)cc1)NC(=O)[C@H](CC(=O)O)NC(=O)[C@H](CCCCN)NC(=O)[C@@H](NC(=O)[C@H](C)NC(=O)[C@H](CCC(=O)O)NC(=O)[C@H](CCCCN)NC(=O)[C@H](Cc1ccccc1)NC(=O)[C@H](CCCCN)NC(=O)[C@H](CCC(=O)O)NC(=O)[C@H](C)NC(=O)[C@H](Cc1ccccc1)NC(=O)[C@@H](N)CS)C(C)C)C(C)C)C(=O)N[C@@H](Cc1c[nH]c2ccccc12)C(=O)N[C@@H](CC(=O)O)C(=O)O [NSPr-C, C FAEKFKEAVKDYFAKFWD P AAEKLKEAVKDYFAKLWD] | 5 | Solubility [2]: 5
4 | Ac-DWLKAFYDKVAEKLKEAAPDWFKAFYDKVAEKFKEAF-NH2 [Ac-NSP-NH2, Ac-DWLKAFYDKVAEKLKEAA P DWFKAFYDKVAEKFKEAF-NH2] | 1 | Competition peptide (% NSPr-FAM) (membrane proteins; Experiment #1, equimolar NSPr-FAM and variant): 10%; Competition NSPr-FAM (±10%) (membrane proteins; Experiment #2): 10%; Solubility [2]: 1; Reconstitution Efficiency (/5) [3, 4]: 2 /5; Reconstitution Efficiency (/5) ([3]; Experiment #2, score 1 to 5): 2 /5
5 | DWLKAFYDKVAEKLKEAAPDWFKAFYDKVAEKFKEAF [NSP, DWLKAFYDKVAEKLKEAA P DWFKAFYDKVAEKFKEAF] | 3 /5 | 
6 | FAAKFKEAVKDYFAKFWDPAAEKLAEAVADYFAALWD [3 SB Disruption H2, FAAKFKEAVKDYFAKFWD P AAEKLAEAVADYFAALWD] | 5 | 
7 | FADKFKDAVKEYFAKFWEPAADKLKDAVKEYFAKLWE [Neg Switch, FADKFKDAVKEYFAKFWE P AADKLKDAVKEYFAKLWE] | 4 /5 | 
8 | FAEAFKEAVKDYFAAFWDPAAEKLKEAVKDYFAKLWD [2 SB Disruption, FAEAFKEAVKDYFAAFWD P AAEKLKEAVKDYFAKLWD] | 5 | 
9 | FAEAFKEAVKDYFAKFWDPAAEKLKEAVKDYFAKLWD [1 SB Disruption, FAEAFKEAVKDYFAKFWD P AAEKLKEAVKDYFAKLWD] | 5 | 
10 | FAEKFKEAVKDQFAKFWDPAAEKLKEAVKDQFAKLWD [Tyr/Gln Switch, FAEKFKEAVKDQFAKFWD P AAEKLKEAVKDQFAKLWD] | 4 /5 | 
11 | FAEKFKEAVKDYFAKFWD P AAEKLKEAVKDYFAKLWD-pyrenebutyric acid [NSPr-pyrene] | 5 | Solubility [2]: 5; Reconstitution Efficiency (/5) [3, 4]: 4 /5; Reconstitution Efficiency (/5) ([3]; Experiment #2, score 1 to 5): 4 /5
12 | FAEKFKEAVKDYFAKFWDGAAEKLKEAVKDYFAKLWD [NSPr-G, FAEKFKEAVKDYFAKFWD G AAEKLKEAVKDYFAKLWD] |  | Solubility [2]: 5
13 | FAEKFKEAVKDYFAKFWDGAAEKLKEAVKDYFAKLWD [Pro/Gly Switch, FAEKFKEAVKDYFAKFWD G AAEKLKEAVKDYFAKLWD] | 4 /5 | 
14 | FAEKFKEAVKDYFAKFWDPAAEKFKEAVKDYFAKLFD [Peptide 4F-3F, FAEKFKEAVKDYFAKFWD P AAEKFKEAVKDYFAKLFD] | 4 /5 | 
15 | FAEKFKEAVKDYFAKFWDPAAEKLKEAVKDYFAKFWD [Peptide 4F-2F, FAEKFKEAVKDYFAKFWD P AAEKLKEAVKDYFAKFWD] | 4 /5 | 
16 | FAEKFKEAVKDYFAKFWDPAAEKLKEAVKDYFAKLW [NSPr-36, FAEKFKEAVKDYFAKFWD P AAEKLKEAVKDYFAKLW] | 3 /5 | 
17 | FAEKFKEAVKDYFAKFWDPFAEKFKEAVKDYFAKFWD [Peptide 4F-4F, FAEKFKEAVKDYFAKFWD P FAEKFKEAVKDYFAKFWD] | 4 /5 | 
18 | FAEKFKEAVKDYFAKLWDPAAEKLKEAVKDYFAKLWD [Peptide 3F-1F, FAEKFKEAVKDYFAKLWD P AAEKLKEAVKDYFAKLWD] | 5 | 
19 | FAEKFKEAVKPYFAKFWDPAAEKLKEAVKPYFAKLWD [NSPr-3P, FAEKFKEAVKPYFAKFWD P AAEKLKEAVKPYFAKLWD] | 5 | Solubility [2]: 5
20 | FAEKLKEAVKDYFAKLWDPFAEKLKEAVKDYFAKLWD [Peptide 2F-2F, FAEKLKEAVKDYFAKLWD P FAEKLKEAVKDYFAKLWD] | 4 /5 | 
21 | FAEKLKEAVKDYLAKFWDPAAEKLKEAVKDYFAKLWD [Peptide 2F-1F, FAEKLKEAVKDYLAKFWD P AAEKLKEAVKDYFAKLWD] | 5 | 
22 | FAERFREAVRDYFARFWDPAAERLREAVRDYFARLWD [Pos Switch, FAERFREAVRDYFARFWD P AAERLREAVRDYFARLWD] | 5 | 
23 | FVEKFKEVAKDYFVKFWDPVVEKLKEVAKDYFVKLWD [Ala/Val Switch, FVEKFKEVAKDYFVKFWD P VVEKLKEVAKDYFVKLWD] | 5 | 
24 | Fam-FAEKFKEAVKDYFAKFWD P AAEKLKEAVKDYFAKLWD [NSPr-FAM] |  | Reconstitution Efficiency (/5) [3, 4]: 5; Reconstitution Efficiency (/5) ([3]; Experiment #2, score 1 to 5): 5
25 | WAEKFKEAVKDYWAKFWDPAAEKLKEAVKDYWAKLWD [Phe/Trp Switch, WAEKFKEAVKDYWAKFWD P AAEKLKEAVKDYWAKLWD] | 4 /5 | 
26 | YAEKFKEAVKDYFAKFYDPAAEKLKEAVKDYFAKLWD [Phe/Tyr Switch, YAEKFKEAVKDYFAKFYD P AAEKLKEAVKDYFAKLWD] | 4 /5 | 
